This note sets out measurements from patent US20130164814A1, “CONTROL OF ENZYMES IN THE PRODUCTION OF PULP” (KEMIRA OYJ, priority 2010, published 2013).

In data set [1] the test system is commercial catalase enzyme. In words: Peroxide decomposition in pure water-peroxide-catalase system (titration against time). In kind it is biochemical. Conditions: 100 mg/L SPC. On the procedure:
(§1) Sodium percarbonate (SPC product E) was tested in a pure distilled water system containing peroxide (210 mg/L), commercial catalase enzyme (1 μL/L) and NaOH to adjust the pH to 9.7 corresponding to the alkaline conditions in a recycled fiber plant. The size of SPC particles comprising NaCO3 coated with Na2SO4 was between 6 and 900 micrometers with maximum 1% >1.6 mm and maximum 2% <0.15 mm. Peroxide decomposition was measured by titration against time. Higher residual peroxide level was obtained with SPC than without any catalase control additive with water-catalase-peroxide system at pH 9.7. Catalase destroyed the 210 mg/I of peroxide very rapidly (FIG. 1, black square). Addition of 100 mg/L of SPC was able to retain the residual peroxide concentration at markedly higher level (triangle). After some initial peroxide degradation, the peroxide level stabilized to ˜80 mg/L. It is known that SPC brings peroxide in the system; this was measured to be 30 mg/L (triangle dotted line). […] Probably catalase enzyme managed to degrade a part of the added peroxide before it was inactivated.

Data set [2] can be described thus: Effect of SPC on the peroxide titration (SPC without catalase and without added H2O2). It is filed as physicochemical. Conditions: 100 mg/L SPC. How it is done:
as §1

A further data set concerns natural catalase. In words: Peroxide concentration in 3% recovered paper pulp with catalase-containing process water. It is filed as biochemical, bacteria. The following applies: for Measured H2O2: 3% pulp, dose SPC 6.7 kg/t or H2O2 2.0 kg/t, + 7 kg/t H2O2 at 0 min. On the procedure:
The effect of SPC product A was studied with a system consisting of recycled fiber pulp and process water with natural catalase. Pulp for the experiment was produced at a recycled fiber pilot plant pulper. Old magazines and old newspapers (OMG/ONP 50/50) were shredded and repulped using process water from a European recycled fiber plant. in the pilot pulper at 19% consistency for 20 minutes with alkaline soap chemistry without peroxide (NaOH 10 kg/t (100%), water glass 15 kg/t (product), soap 5 kg/t). The pulp was stored in freezer until used. Process water from the recycled fiber pilot plant was used in the experiments for diluting the pulp into 3%.
6.7 kg/t of SPC A was added to the pulp and stirred for 5 minutes. After that, 7 kg/t of 100% peroxide was added (at 0 min in FIG. 2 and Table 3) and the concentration of peroxide in the pulp filtrate was measured against time. The SPC addition brought into the system slightly below 2.0 kg peroxide /ton. Therefore, 2.0 kg of peroxide/t representing a reference sample was added to the pulp and stirred for 5 minutes. Again, after that 7 kg/t of 100% peroxide was added (at 0 min in FIG. 2 and Table 3) and the concentration of peroxide was determined by titration against time from the pulp filtrate.

For `O=C([O-])[O-].O=C([O-])[O-].OO.OO.OO.[Na+].[Na+].[Na+].[Na+]` [SPC product E, sodium percarbonate], in data set [1] (water-catalase-peroxide system), the “Measured benefit: peroxide higher than what only came from SPC” value came to 50 mg/L.
In the case of `O=C([O-])[O-].O=C([O-])[O-].OO.OO.OO.[Na+].[Na+].[Na+].[Na+]` [SPC, sodium percarbonate], the “Peroxide brought into the system by SPC” value in data set [2] is 30 mg/L. For the same compound, the “Stabilized peroxide level after initial degradation” value in data set [1] (210 mg/L peroxide, catalase 1 μL/L, pH 9.7) was about 80 mg/L. In addition, the “Peroxide decomposition compared with an equal amount of added peroxide” value with natural catalase (3% pulp made of recovered paper) is reported as “Less peroxide decomposed”. In addition, the “Measured H2O2” value is 8.7 kg/t with natural catalase (0 min), 7.9 kg/t in the data set on natural catalase (10 min), 7.4 kg/t with natural catalase (30 min) and 7.0 kg/t with natural catalase (60 min).
With `OO` [H2O2, hydrogen peroxide, reference compound], the “Measured H2O2” value was determined as 8.7 kg/t in the data set on natural catalase (0 min), 6.4 kg/t with natural catalase (10 min), 5.8 kg/t in the data set with natural catalase (30 min) and 5.2 kg/t in the data set with natural catalase (60 min).
